Measured values as given in patent US8158810B2 (Gilead Sciences, Inc., priority 2006, dated 2012).

How the values were obtained:
[1] = biological target: T1, hALDH2 (recombinant human mitochondria ALDH) (Homo sapiens, UniProt P05091); test: ALDH2 inhibition assay; format: biochemical
T1 sequence (P05091 18-517): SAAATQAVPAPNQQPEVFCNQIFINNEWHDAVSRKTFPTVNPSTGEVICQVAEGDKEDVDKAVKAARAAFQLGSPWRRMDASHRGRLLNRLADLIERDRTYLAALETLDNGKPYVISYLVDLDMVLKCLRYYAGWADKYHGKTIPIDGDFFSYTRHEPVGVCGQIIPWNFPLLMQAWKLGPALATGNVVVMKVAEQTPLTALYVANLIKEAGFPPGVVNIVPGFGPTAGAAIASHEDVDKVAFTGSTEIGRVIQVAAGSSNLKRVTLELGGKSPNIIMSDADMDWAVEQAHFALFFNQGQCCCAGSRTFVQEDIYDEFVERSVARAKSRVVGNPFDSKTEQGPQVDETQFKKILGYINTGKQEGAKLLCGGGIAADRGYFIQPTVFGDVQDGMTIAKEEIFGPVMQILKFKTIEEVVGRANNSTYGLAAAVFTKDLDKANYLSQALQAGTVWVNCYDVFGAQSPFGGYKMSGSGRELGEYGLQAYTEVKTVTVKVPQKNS
Protocol: ALDH2 inhibition assays were performed in sodium phosphate buffer (50 mM, pH 7.4) containing 1.2 mM NAD^+ (Sigma N7004), 1 nM hALDH2 (recombinant human mitochondria ALDH), various concentrations of test compounds (from 0.03 nM to […]), and 0.15 mM freshly prepared formaldehyde solution (Ladd Research 20295). Reactions were initiated by the addition of formaldehyde and rates were recorded by monitoring NADH formation in a temperature controlled (25° C.) FluoroMax-2 Fluorimeter with excitation and emission wavelengths set at 340 and 460 nm, respectively. […] Normally, IC50 values were determined by fitting concentration-inhibition data to sigmoidal dose-response curves with two-floating parameters: IC50 and Hill coefficient. When tight binding situation was suspected, apparent Ki values were estimated by fitting dose-response data to Morrison's equation [Methods in Enzymology 63, 437-467, 1979].

hMAO-B = biological target: T2, hMAO-B (Homo sapiens, UniProt P27338); test: MAO-B inhibition assay; format: biochemical; settings: No = no inhibition; for hMAO-B inhibition at 10 μM: printed in the IC50 hMAO-B column
T2 construct: purchased Sigma M7441
T2 sequence (P27338 1-520): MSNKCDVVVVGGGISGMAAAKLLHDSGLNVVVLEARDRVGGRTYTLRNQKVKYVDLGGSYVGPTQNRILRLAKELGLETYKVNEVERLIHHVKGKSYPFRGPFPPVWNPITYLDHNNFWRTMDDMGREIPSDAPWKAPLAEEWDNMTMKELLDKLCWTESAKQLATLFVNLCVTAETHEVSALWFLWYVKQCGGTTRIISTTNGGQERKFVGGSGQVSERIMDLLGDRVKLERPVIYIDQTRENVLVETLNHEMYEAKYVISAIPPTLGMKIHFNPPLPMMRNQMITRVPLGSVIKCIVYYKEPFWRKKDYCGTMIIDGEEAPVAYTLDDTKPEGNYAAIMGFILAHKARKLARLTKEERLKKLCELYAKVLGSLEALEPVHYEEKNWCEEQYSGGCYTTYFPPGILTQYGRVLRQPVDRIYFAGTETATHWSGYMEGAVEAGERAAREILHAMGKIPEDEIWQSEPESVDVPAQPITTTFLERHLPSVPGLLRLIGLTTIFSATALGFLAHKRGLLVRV
Protocol: MAO-A (Sigma M7316) and MAO-B (Sigma M7441) inhibition assays were conducted in 96-well micro-plates according to the method described by Zhou et al. [Analytical Biochemistry 253, 169-174, 1997]. […] Reactions were initiated by the addition of a pre-mixed solution of tyramine, horseradish peroxidase and Amplex Red, and were allowed to proceed at 37° C. for 30 min. Enzyme activities were determined by measuring absorbance at 570 nm (SpectralMax Plate reader), absorbance of oxidized Amplex Red generated by this horseradish peroxidase-coupled reaction. Nonspecifically formed products were determined in the presence of 2 and 10 µM clorgyline and deprenyl for MAO-A and MAO-B, respectively. IC50 values were determined by fitting concentration-inhibition data to sigmoidal dose-response curves with two-floating parameters: IC50 and Hill coefficient.

hMAO-A = biological target: T3, hMAO-A (Homo sapiens, UniProt P21397); test: MAO-A inhibition assay; format: biochemical; settings: up to 10 μM; No = no inhibition; printed in the IC50 hMAO-A column
T3 construct: purchased Sigma M7316
T3 sequence (P21397 1-527): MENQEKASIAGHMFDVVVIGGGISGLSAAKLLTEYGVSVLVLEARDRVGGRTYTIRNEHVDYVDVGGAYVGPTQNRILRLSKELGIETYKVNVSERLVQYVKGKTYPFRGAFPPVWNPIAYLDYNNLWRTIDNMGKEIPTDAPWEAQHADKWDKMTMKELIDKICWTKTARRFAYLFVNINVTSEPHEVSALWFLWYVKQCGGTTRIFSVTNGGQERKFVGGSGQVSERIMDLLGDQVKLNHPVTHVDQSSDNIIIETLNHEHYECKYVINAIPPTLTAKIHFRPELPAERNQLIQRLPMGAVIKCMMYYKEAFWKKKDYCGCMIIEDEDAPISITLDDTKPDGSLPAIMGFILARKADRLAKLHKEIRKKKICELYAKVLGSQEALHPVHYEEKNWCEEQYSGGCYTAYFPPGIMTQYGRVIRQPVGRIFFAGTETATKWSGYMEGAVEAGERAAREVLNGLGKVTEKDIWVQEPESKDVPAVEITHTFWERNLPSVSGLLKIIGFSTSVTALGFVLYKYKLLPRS
Method in brief: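 Human MAO-A (0.6 U/ml) or MAO-B (2.5 U/ml) in 0.1 M potassium phosphate pH 7.5 with 0.5 mM tyramine, 0.12 mM Amplex Red and HRP; compounds at 0.1 nM-10 μM, 30 min at 37 °C, absorbance at 570 nm. Background set with clorgyline (MAO-A) or deprenyl (MAO-B); IC50 from sigmoidal fits.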

Male Sprague-Dawley rats = test: Cocaine self administration and reinstatement model (cocaine induced relapse); format: in vivo, rat; settings: for Lever presses (Avg ± Std. error): significantly different from Vehicle, p < 0.05
Protocol: Intravenous cocaine (0.35 mg/kg/inj) was used in an operant self administration and reinstatement model in rats. In this model, rats addicted to cocaine repeatedly pressed a lever to obtain an intravenous dose (iv) of cocaine. When cocaine was removed, rats stopped pressing the lever. However, rats resumed lever pressing for cocaine (reinstatement) if subjected to a small intraperitoneal (ip) dose (10 mg/kg) of cocaine that normally has no effect in naïve animals. This is a valid animal model of relapse in cocaine addicted humans, and tests the ability of compounds of Formula I to block cocaine craving and relapse.
Male Sprague-Dawley rats with jugular vein catheterization were used. Rats were presented with a choice of two levers in the test/training chamber. […] The following day the reinforcer was switched to FR1 lever pressing for cocaine (0.35 mg/kg/inj, delivered in 0.27 sec). […] Daily training sessions for each group lasted 2 hours, or until a subject earned 200 drug infusions, whichever came first. The subjects remained in drug self-administration training mode until acquisition criterion was met (average presses on the active lever varied by <10% over 3 consecutive training days). This typically takes 10-14 days.
For extinction and reinstatement experiments, rats were required to display stable responding (variability not higher than 15% in 2 consecutive sessions) on the FR1 schedule of reinforcement. […] When average responding across three consecutive extinction sessions fell to 15% of responding during maintenance, subjects were tested for reinstatement. In cocaine-experienced animals, reinstatement was primed with a non-contingent injection of cocaine (10 mg/kg ip) immediately before the reinstatement session. In order to increase statistical power and therefore decrease animal usage, a second extinction period was initiated 3-4 days after the first, which allowed for additional within-subjects comparisons. Experiments used a between-session-training and testing method in which animals were trained to self administer drug. Their behavior was then extinguished and then reinstatement was primed on different days.
Animals were trained to self administer cocaine (0.35 mg/kg/inj) until they reached stable responding. They were then trained in the same chambers but cocaine was no longer available.

Wistar-derived male rats = test: Nicotine self-administration; format: in vivo, rat; settings: increasing doses (7.5, 10, 15 mg/kg i.p.) 30 minutes prior to session
Protocol: Wistar-derived male rats (250-300 g) were housed in groups of two and maintained in a temperature-controlled environment on a 12 hour: 12 hour light cycle (0600 h on-1800 h off), upon arrival in the laboratory. Animals were given free access to food and water during a one-week habituation period to the laboratory. […] Animals were handled daily for several days to desensitize them to handling stress before experimental testing. The sample sizes (n=8) provided reliable estimates of drug effects.
Mecamylamine was dissolved in 0.09% isotonic saline and administered at a volume of 1 ml/kg.
Food training and nicotine self-administration took place in 8 standard Coulbourn operant chambers. Each chamber was housed in a sound-attenuated box. Operant chambers were equipped with two levers, mounted 2 cm above the floor, and a cue light mounted 2 cm above the right lever on the back wall of the chamber. For food training, a food hopper was located 2-cm to the left/right of either lever, in the middle of the back wall. Intravenous infusions were delivered in a volume of 0.1 ml over a 1 second interval via an infusion pump (Razel, Conn.) housed outside of the sound attenuated chamber.
Initially, rats were restricted to 15 grams of food daily (approximately 85% of their free-feeding body weight). […]

Compound | IC50 [1] | hMAO-B inhibition at 10 μM (hMAO-B) | hMAO-A inhibition up to 10 μM (hMAO-A) | other results
3-(4-hydroxyphenyl)-7-[(5-(4-pyridyl)(1,2,4-oxadiazol-3-yl))ethoxy]chromen-4-one [PT-117] | 98 nM | No | No | –
CS(=O)(=O)Nc1ccc(-c2coc3cc(OCc4cccc(C(=O)O)c4)ccc3c2=O)cc1 [Cmpd A, 3-[(3-{4-[(methylsulfonyl)amino]phenyl}-4-oxochromen-7-yloxy)methyl]-benzoic acid] | – | – | – | Lever presses (Avg ± Std. error) (Male Sprague-Dawley rats; 7.5 mg/kg prior to cocaine priming dose (10 mg/kg), N = 9): 24.94 ± 7.92; Lever presses (Avg ± Std. error) (Male Sprague-Dawley rats; 10 mg/kg prior to cocaine priming (10 mg/kg) dose, N = 6): 19.83 ± 11.30; lever presses responding after priming injection of cocaine (Male Sprague-Dawley rats; 7.5 and 10 mg/kg prior to the priming injection of cocaine (10 mg/kg)): did not show an increase in their lever presses responding; relapse for cocaine (Male Sprague-Dawley rats; ip injections, rats): dose dependently blocked relapse for cocaine; number of bar presses (number of infusions) for nicotine administration (Wistar-derived male rats): reduced the number of bar presses
CC(C)OC(=O)c1cccc(COc2ccc3c(=O)c(-c4ccc(O)cc4)coc3c2)c1 [PT-35, methylethyl 3-{[3-(4-hydroxyphenyl)-4-oxochromen-7-yloxy]methyl}benzoate] | 20 nM | – | No | hMAO-B inhibition up to 10 μM (hMAO-B; up to 10 μM): No
O=c1c(-c2ccc(O)cc2)coc2cc(OCCc3cccc(C(F)(F)F)c3)ccc12 [PT-59, 3-(4-hydroxyphenyl)-7-{[3-(trifluoromethyl)phenyl]ethoxy}chromen-4-one] | 670 nM | 24% | No | –
O=c1c(-c2cn[nH]c2)coc2cc(OCc3noc(-c4cc(F)cc(C(F)(F)F)c4)n3)ccc12 [PT-75, 7-({5-[3-fluoro-5-(trifluoromethyl)phenyl](1,2,4-oxadiazol-3-yl)}methoxy)-3-(5-hydropyrazol-4-yl)chromen-4-one] | – | No | No | hALDH2 inhibition at 1 μM ([1]; at 1 μM, printed in the IC50 hALDH2 column): 14%
O=c1c(-c2ccc(O)cc2)coc2cc(OCCc3nnc(-c4ccc(F)cc4)o3)ccc12 [PT-112, 7-{[5-(4-fluorophenyl)(1,3,4-oxadiazol-2-yl)]echoxy}-3-(4-hydroxyphenyl)chromen-4-one] | 5 nM | No | No | –
ethyl 3-[7-({3-[3-fluoro-5-(trifluoromethyl)phenyl](1,2,4-oxadiazol-5-yl)}ethoxy)-4-oxochromen-3-yl]benzoate [PT-76] | 63 nM | 21% | No | –
